# Data reported in PMC10712727, “Safety, Tolerability, and Pharmacokinetics of Senaparib, a Novel PARP1/2 Inhibitor, in Chinese Patients With Advanced Solid Tumors: A Phase I Trial” (The Oncologist, 2023).
# Experiment: Plasma pharmacokinetics in continuous dosing period, cycle 1 day 15 steady state (HPLC-MS/MS)
# Type: in vivo, human
# Conditions: for Rac, accumulation ratio (mean±SD) / Vss/F (mean±SD): cycle 1 day 15
# Method: Dose escalation was conducted using a modified Fibonacci 3 + 3 method (Supplementary Fig. […] At a given dose level, each patient received a single dose of senaparib followed by a 7-day washout period. They then entered a continuous dosing period to confirm the safety and PK profile, in which they received senaparib QD from day 1 to day 21 of each 3-week cycle. Progression to the next higher dose required approval from the Data Safety Monitoring Committee (DSMC) upon review of the safety and PK data of the previous dose. A 50-mg twice-daily (BID) dosing group was added (planned enrollment, n = 6 patients) based on a DSMC review of the safety, PK, and efficacy analysis of the completed QD dose groups in the phase I clinical trial of senaparib dose escalation in Australia (NCT03507543), which commenced prior to the start of this trial. Safety was assessed by recording the incidence of dose-limiting toxicities (DLTs), and the incidence, nature, severity (graded per National Cancer Institute Common Terminology Criteria for Adverse Events version 4.03 [NCI CTCAE v4.03][18]), and relatedness of treatment-emergent adverse events (TEAEs). DLTs were predefined toxicities (Supplementary Table S2) recorded over the 7 days following the single-dose administration of senaparib and during the first treatment cycle (day 1-day 21) for each dose group in the dose-escalation period only. […] Senaparib PK parameters were derived from blood samples collected from patients after the single administration, and at regular intervals during the first cycle of the dose-escalation and dose-expansion periods. Plasma concentrations of senaparib were determined using high-performance liquid chromatography-tandem mass spectrometry. […] There was no formal sample size calculation based on statistical hypothesis testing for this study; the planned enrolment was approximately 30-60 patients across the dose-escalation and dose-expansion cohorts. The actual number in the dose-escalation cohort was adjusted based on the number of dose cohorts required for the modified Fibonacci dose-escalation design and the determined MTD. Definitions for all analysis populations (safety, DLT, PK, and efficacy [intent-to-treat, ITT]) are provided in Supplementary Table S2. No statistical tests were performed; patient demographic and baseline characteristics, safety/tolerability, PK parameters, and efficacy were evaluated descriptively. ORR and DCR and their 95% CIs were calculated for each group using the exact probability method. Kaplan-Meier statistics were used to estimate DOR and PFS, and their 95% CIs for each dose group separately. Dose linearity was explored based on the single-dose data of area under the time-concentration curve (AUC) and maximum plasma concentration (Cmax) using the power model (Y = α × dose β) for the dose range 2-80 mg on a log-transformed scale. The following criterion was used to determine whether dose proportionality was met: if the (2-sided) 90% CI for β was wholly contained within the interval (1 + log(0.5)/log(r), 1 + log(2)/log(r)), then dose proportionality was supported. Here, r was defined as the ratio of the highest to lowest dose. All data analyses were carried out using SAS EG7.1 or higher or (for PK parameters) WinNonlin 7.0 or higher.
compound,measurement,setting,value
O=C(c1cc(Cn2c(=O)[nH]c(=O)c3c(F)cccc32)ccc1F)N1CCN(c2ncccn2)CC1 [Senaparib],"Rac, accumulation ratio (mean±SD)",2 mg QD (n/N = 1/1),1.5
same,Vss/F (mean±SD),2 mg QD (n/N = 1/1),16.6 L
same,"Rac, accumulation ratio (mean±SD)",5 mg QD (n/N = 3/3),1.4±0.4
same,Vss/F (mean±SD),5 mg QD (n/N = 3/3),19.8 ± 7.7 L
same,"Rac, accumulation ratio (mean±SD)",10 mg QD (n/N = 3/3),1.4±0.2
same,Vss/F (mean±SD),10 mg QD (n/N = 3/3),24.9 ± 4.3 L
same,"Rac, accumulation ratio (mean±SD)",20 mg QD (n/N = 5/5),1.2±0.2
same,Vss/F (mean±SD),20 mg QD (n/N = 5/5),18.1 ± 2.5 L
same,"Rac, accumulation ratio (mean±SD)",40 mg QD (n/N = 3/3),1.1±0.1
same,"Rac, accumulation ratio (mean±SD)",50 mg BID (n/N = 4/4),1.8±0.4
same,Vss/F (mean±SD),50 mg BID (n/N = 4/4),39.9 ± 3.4 L
same,"Rac, accumulation ratio (mean±SD)",60 mg QD (n/N = 5/5),1.1±0.0
same,Vss/F (mean±SD),60 mg QD (n/N = 5/5),32.1 ± 13.0 L
same,"Rac, accumulation ratio (mean±SD)",80 mg QD (n/N = 9/9),1.2±0.1
same,Vss/F (mean±SD),80 mg QD (n/N = 9/9),38.8 ± 23.5 L
same,"Rac, accumulation ratio (mean±SD)",100 mg QD (n/N = 20/20),1.2±0.1
same,Vss/F (mean±SD),100 mg QD (n/N = 20/20),40.1 ± 21.9 L
same,"Rac, accumulation ratio (mean±SD)",120 mg QD (n/N = 4/4),1.2±0.2
same,Vss/F (mean±SD),120 mg QD (n/N = 4/4),1.3 ± 39.5 L
same,Accumulation ratio (Rac),after BID administration,1.8
same,Accumulation ratio (mean Rac),after repeated QD administration,1.1-1.5
same,AUC from time zero to 24 h post dose,"human, in vivo",approximately 35 918 h*ng/mL
same,AUC from time zero to the last measurable concentration,"human, in vivo",33 827 h*ng/mL
same,"AUC0-inf, mean±SD","human, in vivo, 2 mg",4361.8 ng·h/mL
same,"AUC0-t, mean±SD","human, in vivo, 2 mg",2753.5 ng·h/mL
same,CLss/F (mean±SD),"human, in vivo, 2 mg",0.7 L/h
same,"Cmax, mean±SD","human, in vivo, 2 mg",203.0 ng/mL
same,"Tmax, median (range)","human, in vivo, 2 mg",2.0 (2.0-2.0) h
same,"t½, median (range)","human, in vivo, 2 mg",16.0 (16.0-16.0) h
same,"AUC0-inf, mean±SD","human, in vivo, 5 mg",9655.4±11 022.2 h*ng/mL
same,"AUC0-t, mean±SD","human, in vivo, 5 mg",6013.7 ± 5649.0 ng·h/mL
same,CLss/F (mean±SD),"human, in vivo, 5 mg",1.6 ± 1.3 L/h
same,"Cmax, mean±SD","human, in vivo, 5 mg",470.7 ± 354.0 ng/mL
same,"Tmax, median (range)","human, in vivo, 5 mg",2.0 (2.0-2.0) h
same,"t½, median (range)","human, in vivo, 5 mg",10.3 (6.4-21.4) h
same,"AUC0-inf, mean±SD","human, in vivo, 10 mg",10 553.4±2657.5 h*ng/mL
same,"AUC0-t, mean±SD","human, in vivo, 10 mg",7506.4 ± 892.6 ng·h/mL
same,CLss/F (mean±SD),"human, in vivo, 10 mg",1.3 ± 0.2 L/h
same,"Cmax, mean±SD","human, in vivo, 10 mg",598.7 ± 67.9 ng/mL
same,"Tmax, median (range)","human, in vivo, 10 mg",4.0 (2.0-4.0) h
same,"t½, median (range)","human, in vivo, 10 mg",13.2 (9.4-16.8) h
same,"AUC0-inf, mean±SD","human, in vivo, 20 mg",22 122.4±18 526.0 h*ng/mL
same,"AUC0-t, mean±SD","human, in vivo, 20 mg",16 213.5±9863.9 h*ng/mL
same,CLss/F (mean±SD),"human, in vivo, 20 mg",1.6 ± 0.8 L/h
same,"Cmax, mean±SD","human, in vivo, 20 mg",1483.2 ± 487.8 ng/mL
same,"Tmax, median (range)","human, in vivo, 20 mg",2.0 (1.8-2.0) h
same,"t½, median (range)","human, in vivo, 20 mg",9.4 (5.5-17.5) h
same,"AUC0-inf, mean±SD","human, in vivo, 40 mg",22 437.1±5342.9 h*ng/mL
same,"AUC0-t, mean±SD","human, in vivo, 40 mg",19 566.5±3285.1 h*ng/mL
same,CLss/F (mean±SD),"human, in vivo, 40 mg",2.1 ± 0.4 L/h
same,"Cmax, mean±SD","human, in vivo, 40 mg",2013.3 ± 280.2 ng/mL
same,"Tmax, median (range)","human, in vivo, 40 mg",1.9 (1.8-2.0) h
same,"t½, median (range)","human, in vivo, 40 mg",7.5 (5.5-9.2) h
same,"AUC0-inf, mean±SD","human, in vivo, 50 mg",38 418.9±19 776.1 h*ng/mL
same,"AUC0-t, mean±SD","human, in vivo, 50 mg",17 959.6±5287.0 h*ng/mL
same,CLss/F (mean±SD),"human, in vivo, 50 mg",2.8 ± 0.8 L/h
same,"Cmax, mean±SD","human, in vivo, 50 mg",2152.5 ± 354.3 ng/mL
same,"Tmax, median (range)","human, in vivo, 50 mg",2.0 (1.9-3.7) h
same,"t½, median (range)","human, in vivo, 50 mg",9.7 (7.8-15.2) h
same,"AUC0-inf, mean±SD","human, in vivo, 60 mg",19 189.5±10 074.3 h*ng/mL
same,"AUC0-t, mean±SD","human, in vivo, 60 mg",17 777.2±8739.1 h*ng/mL
same,CLss/F (mean±SD),"human, in vivo, 60 mg",4.6 ± 3.6 L/h
same,"Cmax, mean±SD","human, in vivo, 60 mg",2056.0 ± 975.0 ng/mL
same,"Tmax, median (range)","human, in vivo, 60 mg",2.0 (1.9-3.9) h
same,"t½, median (range)","human, in vivo, 60 mg",5.8 (3.4-7.7) h
same,"AUC0-inf, mean±SD","human, in vivo, 80 mg",48 747.0±33 189.7 h*ng/mL
same,"AUC0-t, mean±SD","human, in vivo, 80 mg",37 727.0±21 476.1 h*ng/mL
same,CLss/F (mean±SD),"human, in vivo, 80 mg",2.9 ± 1.8 L/h
same,"Cmax, mean±SD","human, in vivo, 80 mg",3487.8 ± 1649.2 ng/mL
same,"Tmax, median (range)","human, in vivo, 80 mg",2.0 (1.9-3.8) h
same,"t½, median (range)","human, in vivo, 80 mg",9.7 (5.8-14.4) h
same,"AUC0-inf, mean±SD","human, in vivo, 100 mg",40 080.4±16 731.2 h*ng/mL
same,"AUC0-t, mean±SD","human, in vivo, 100 mg",33 827.1±12 273.6 h*ng/mL
same,CLss/F (mean±SD),"human, in vivo, 100 mg",3.5 ± 1.8 L/h
same,"Cmax, mean±SD","human, in vivo, 100 mg",3212.5 ± 765.1 ng/mL
same,"Tmax, median (range)","human, in vivo, 100 mg",1.9 (1.8-4.1) h
same,"t½, median (range)","human, in vivo, 100 mg",7.5 (5.3-16.1) h
same,"AUC0-inf, mean±SD","human, in vivo, 120 mg",87 799.1±11 6874.0 h*ng/mL
same,"AUC0-t, mean±SD","human, in vivo, 120 mg",62 737.2±74517.1 h*ng/mL
same,CLss/F (mean±SD),"human, in vivo, 120 mg",4.3 ± 3.3 L/h
same,"Cmax, mean±SD","human, in vivo, 120 mg",5107.5 ± 4893.2 ng/mL
same,"Tmax, median (range)","human, in vivo, 120 mg",2.0 (1.9-2.1) h
same,"t½, median (range)","human, in vivo, 120 mg",8.8 (6.0-15.2) h
